Tested on: Magnaporthe grisea (Pyricularia oryzae—PYRIOR)
Assay: microbe, parasite or virus in culture
Type: cell-based
Conditions: Pyricularia oryzae, read-out: PYRIOR in vitro Growth Inhibition
For O=C(NC1CCCCCCC1)c1ncccc1O [Compound 203], the inhibition at 25 ppm was > 80%.
In the case of COc1ccnc(C(=O)N[C@H]2COC(=O)[C@H](Cc3ccccc3)[C@@H](OC(=O)C(C)C)[C@H](C)OC2=O)c1OS(C)(=O)=O [Compound 721], the inhibition at 25 ppm is reported as < 80%.
With COc1ccnc(C(=O)N[C@H]2COC(=O)[C@H](Cc3ccccc3)[C@@H](OC(=O)C(C)C)[C@H](C)OC2=O)c1OS(=O)(=O)c1ccc(C)cc1 [Compound 722] the inhibition at 25 ppm was < 80%.
With COc1ccnc(C(=O)NC2CCN(Cc3cccc(C(F)(F)F)c3)CC2)c1O.O=C(O)/C=C\C(=O)O.O=C(O)/C=C\C(=O)O [Compound 307] the inhibition at 25 ppm was < 80%.

Tested on: Rhizoctonia solani (RHIZSO)
Assay: microbe, parasite or virus in culture
Type: cell-based
Conditions: Rhizoctonia solani, read-out: RHIZSO in vitro Growth Inhibition
With O=C(NC1CCCCCCC1)c1ncccc1O [Compound 203] the inhibition at 25 ppm was > 80%.
With COc1ccnc(C(=O)N[C@H]2COC(=O)[C@H](Cc3ccccc3)[C@@H](OC(=O)C(C)C)[C@H](C)OC2=O)c1OS(C)(=O)=O [Compound 721] the inhibition at 25 ppm was < 80%.
In the case of COc1ccnc(C(=O)N[C@H]2COC(=O)[C@H](Cc3ccccc3)[C@@H](OC(=O)C(C)C)[C@H](C)OC2=O)c1OS(=O)(=O)c1ccc(C)cc1 [Compound 722], the inhibition at 25 ppm is reported as < 80%.
In the case of COc1ccnc(C(=O)NC2CCN(Cc3cccc(C(F)(F)F)c3)CC2)c1O.O=C(O)/C=C\C(=O)O.O=C(O)/C=C\C(=O)O [Compound 307], the inhibition at 25 ppm is reported as < 80%.

Tested on: Mycosphaerella graminicola (Septoria tritici—SEPTTR)
Assay: In vitro fungal growth inhibition, Mycosphaerella graminicola (SEPTTR)
Type: cell-based
Conditions: Zymoseptoria tritici, read-out: SEPTTR in vitro Growth Inhibition
In the case of COc1ccnc(C(=O)NC2CCN(Cc3cccc(C(F)(F)F)c3)CC2)c1O.O=C(O)/C=C\C(=O)O.O=C(O)/C=C\C(=O)O [Compound 307], the inhibition at 25 ppm is reported as < 80%.

Same assay, conditions: Zymoseptoria tritici; 25 ppm in growth medium; read-out: SEPTTR in vitro Growth Inhibition
For O=C(NC1CCCCCCC1)c1ncccc1O [Compound 203], the inhibition at 25 ppm was > 80%.
With COc1ccnc(C(=O)N[C@H]2COC(=O)[C@H](Cc3ccccc3)[C@@H](OC(=O)C(C)C)[C@H](C)OC2=O)c1OS(C)(=O)=O [Compound 721] the inhibition at 25 ppm was < 80%.
For COc1ccnc(C(=O)N[C@H]2COC(=O)[C@H](Cc3ccccc3)[C@@H](OC(=O)C(C)C)[C@H](C)OC2=O)c1OS(=O)(=O)c1ccc(C)cc1 [Compound 722], the inhibition at 25 ppm was < 80%.

Tested on: Stagonospora nodorum (Leptosphaeria nodorum—LEPTNO)
Assay: In vitro fungal growth inhibition, Stagonospora nodorum (LEPTNO)
Type: cell-based
Conditions: Leptosphaeria, read-out: LEPTNO in vitro Growth Inhibition
In the case of COc1ccnc(C(=O)NC2CCN(Cc3cccc(C(F)(F)F)c3)CC2)c1O.O=C(O)/C=C\C(=O)O.O=C(O)/C=C\C(=O)O [Compound 307], the inhibition at 25 ppm is reported as < 80%.

Same assay, conditions: Leptosphaeria; 25 ppm in growth medium; read-out: LEPTNO in vitro Growth Inhibition
For O=C(NC1CCCCCCC1)c1ncccc1O [Compound 203], the inhibition at 25 ppm was > 80%.
With COc1ccnc(C(=O)N[C@H]2COC(=O)[C@H](Cc3ccccc3)[C@@H](OC(=O)C(C)C)[C@H](C)OC2=O)c1OS(C)(=O)=O [Compound 721] the inhibition at 25 ppm was > 80%.
In the case of COc1ccnc(C(=O)N[C@H]2COC(=O)[C@H](Cc3ccccc3)[C@@H](OC(=O)C(C)C)[C@H](C)OC2=O)c1OS(=O)(=O)c1ccc(C)cc1 [Compound 722], the inhibition at 25 ppm is reported as < 80%.

Tested on: Ustilago maydis (USTIMA)
Assay: microbe, parasite or virus in culture
Type: cell-based
Conditions: Mycosarcoma maydis, read-out: USTIMA in vitro Growth Inhibition
With O=C(NC1CCCCCCC1)c1ncccc1O [Compound 203] the inhibition at 25 ppm was < 80%.
With COc1ccnc(C(=O)N[C@H]2COC(=O)[C@H](Cc3ccccc3)[C@@H](OC(=O)C(C)C)[C@H](C)OC2=O)c1OS(C)(=O)=O [Compound 721] the inhibition at 25 ppm was < 80%.
With COc1ccnc(C(=O)N[C@H]2COC(=O)[C@H](Cc3ccccc3)[C@@H](OC(=O)C(C)C)[C@H](C)OC2=O)c1OS(=O)(=O)c1ccc(C)cc1 [Compound 722] the inhibition at 25 ppm was < 80%.
In the case of COc1ccnc(C(=O)NC2CCN(Cc3cccc(C(F)(F)F)c3)CC2)c1O.O=C(O)/C=C\C(=O)O.O=C(O)/C=C\C(=O)O [Compound 307], the inhibition at 25 ppm is reported as < 80%.

Tested on: Phytophthora infestans (PHYTIN)
Assay: microbe, parasite or virus in culture
Type: cell-based
Conditions: Phytophthora infestans, read-out: PHYTIN in vitro Growth Inhibition
In the case of O=C(NC1CCCCCCC1)c1ncccc1O [Compound 203], the inhibition at 25 ppm is reported as < 80%.
In the case of COc1ccnc(C(=O)N[C@H]2COC(=O)[C@H](Cc3ccccc3)[C@@H](OC(=O)C(C)C)[C@H](C)OC2=O)c1OS(C)(=O)=O [Compound 721], the inhibition at 25 ppm is reported as < 80%.
In the case of COc1ccnc(C(=O)N[C@H]2COC(=O)[C@H](Cc3ccccc3)[C@@H](OC(=O)C(C)C)[C@H](C)OC2=O)c1OS(=O)(=O)c1ccc(C)cc1 [Compound 722], the inhibition at 25 ppm is reported as < 80%.
With COc1ccnc(C(=O)NC2CCN(Cc3cccc(C(F)(F)F)c3)CC2)c1O.O=C(O)/C=C\C(=O)O.O=C(O)/C=C\C(=O)O [Compound 307] the inhibition at 25 ppm was < 80%.

Tested on: Phytophthora infestans—PHYTIN
Assay: whole plant or invertebrate
Type: in vivo
Conditions: Phytophthora, in Solanum lycopersicum, 24 h, read-out: PHYTIN in vivo 1 Day Protectant
With COc1ccnc(C(=O)N[C@H]2COC(=O)[C@H](Cc3ccccc3)[C@@H](OC(=O)C(C)C)[C@H](C)OC2=O)c1OS(C)(=O)=O [Compound 721] the pest or weed control at 100 ppm was < 25%.
For COc1ccnc(C(=O)N[C@H]2COC(=O)[C@H](Cc3ccccc3)[C@@H](OC(=O)C(C)C)[C@H](C)OC2=O)c1OS(=O)(=O)c1ccc(C)cc1 [Compound 722], the pest or weed control at 100 ppm was < 25%.
With COc1ccnc(C(=O)NC2CCN(Cc3cccc(C(F)(F)F)c3)CC2)c1O.O=C(O)/C=C\C(=O)O.O=C(O)/C=C\C(=O)O [Compound 307] the pest or weed control at 100 ppm was < 25%.

Tested on: Puccinia recondita—PUCCRT
Assay: Brown Rust of Wheat, in vivo whole plant, 24 Hour Protectant
Conditions: 100 ppm spray, wheat, 24 hour protectant, % control of fungal infection vs untreated plants
In the case of COc1ccnc(C(=O)N[C@H]2COC(=O)[C@H](Cc3ccccc3)[C@@H](OC(=O)C(C)C)[C@H](C)OC2=O)c1OS(C)(=O)=O [Compound 721], the “PUCCRT in vivo 1 Day Protectant” value is reported as “+ +”.

Same assay, conditions: Puccinia, 24 h, read-out: PUCCRT in vivo 1 Day Protectant
With COc1ccnc(C(=O)NC2CCN(Cc3cccc(C(F)(F)F)c3)CC2)c1O.O=C(O)/C=C\C(=O)O.O=C(O)/C=C\C(=O)O [Compound 307] the pest or weed control at 100 ppm was < 25%.

Same assay, conditions: Puccinia; 100 ppm spray, wheat, 24 hour protectant, % control of fungal infection vs untreated plants; read-out: PUCCRT in vivo 1 Day Protectant
For COc1ccnc(C(=O)N[C@H]2COC(=O)[C@H](Cc3ccccc3)[C@@H](OC(=O)C(C)C)[C@H](C)OC2=O)c1OS(=O)(=O)c1ccc(C)cc1 [Compound 722], the pest or weed control at 100 ppm was 25 to 74%.

Tested on: Erysiphe graminis—ERYSGT
Assay: Powdery Mildew of Wheat, in vivo whole plant, 24 Hour Protectant
Conditions: Erysiphe, 24 h, read-out: ERYSGT in vivo 1 Day Protectant
For COc1ccnc(C(=O)NC2CCN(Cc3cccc(C(F)(F)F)c3)CC2)c1O.O=C(O)/C=C\C(=O)O.O=C(O)/C=C\C(=O)O [Compound 307], the pest or weed control at 100 ppm was 25 to 74%.

Same assay, conditions: Erysiphe; 100 ppm spray, wheat, 24 hour protectant, % control of fungal infection vs untreated plants; read-out: ERYSGT in vivo 1 Day Protectant
For COc1ccnc(C(=O)N[C@H]2COC(=O)[C@H](Cc3ccccc3)[C@@H](OC(=O)C(C)C)[C@H](C)OC2=O)c1OS(C)(=O)=O [Compound 721], the pest or weed control at 100 ppm was < 25%.
In the case of COc1ccnc(C(=O)N[C@H]2COC(=O)[C@H](Cc3ccccc3)[C@@H](OC(=O)C(C)C)[C@H](C)OC2=O)c1OS(=O)(=O)c1ccc(C)cc1 [Compound 722], the pest or weed control at 100 ppm is reported as < 25%.

Tested on: Leptosphaeria nodorum—LEPTNO
Assay: Glume Blotch of Wheat, in vivo whole plant, 24 Hour Protectant
Conditions: 100 ppm spray, wheat, 24 hour protectant, % control of fungal infection vs untreated plants
In the case of COc1ccnc(C(=O)N[C@H]2COC(=O)[C@H](Cc3ccccc3)[C@@H](OC(=O)C(C)C)[C@H](C)OC2=O)c1OS(C)(=O)=O [Compound 721], the “LEPTNO in vivo 1 Day Protectant” value is reported as “+ +”.
For COc1ccnc(C(=O)N[C@H]2COC(=O)[C@H](Cc3ccccc3)[C@@H](OC(=O)C(C)C)[C@H](C)OC2=O)c1OS(=O)(=O)c1ccc(C)cc1 [Compound 722], the “LEPTNO in vivo 1 Day Protectant” value was “+ +”.

Same assay, conditions: Leptosphaeria, 24 h, read-out: LEPTNO in vivo 1 Day Protectant
In the case of COc1ccnc(C(=O)NC2CCN(Cc3cccc(C(F)(F)F)c3)CC2)c1O.O=C(O)/C=C\C(=O)O.O=C(O)/C=C\C(=O)O [Compound 307], the pest or weed control at 100 ppm is reported as < 25%.

Tested on: not given
Assay: not given
Conditions: not given
For O=C(NC1CCCCCCC1)c1ncccc1O [Compound 203], the melting point was 63 to 64 °C.
In the case of COc1ccnc(C(=O)N[C@H]2COC(=O)[C@H](Cc3ccccc3)[C@@H](OC(=O)C(C)C)[C@H](C)OC2=O)c1OS(C)(=O)=O [Compound 721], the melting point is reported as 189 to 194 °C.
In the case of COc1ccnc(C(=O)N[C@H]2COC(=O)[C@H](Cc3ccccc3)[C@@H](OC(=O)C(C)C)[C@H](C)OC2=O)c1OS(=O)(=O)c1ccc(C)cc1 [Compound 722], the melting point is reported as 153 to 155 °C.
For COc1ccnc(C(=O)NC2CCN(Cc3cccc(C(F)(F)F)c3)CC2)c1O.O=C(O)/C=C\C(=O)O.O=C(O)/C=C\C(=O)O [Compound 307], the melting point was 168 to 170 °C.

From patent publication US6706740B2, “Fungicidal heterocyclic aromatic amides and their compositions, methods of use and preparation” (Dow AgroSciences LLC, priority 1999, dated 2004)
